Assay results from patent US20080015198A1, “Substituted pyrazoline compounds, their preparation and use as medicaments” (LABORATORIOS DEL DR.ESTEVE S.A., priority 2004, published 2008).

Assays:
cannabinoid receptors [1] = test: Mouse tetrad model, agonistic effect; assay type: in vivo, mice; settings: 5 mg/kg i.v.; for Agonistic effect B: Hypothermia: unit assumed
Source text: (§1) Substances with affinity for cannabinoid receptors are known to produce a wide range of pharmacological effects. It is also known that intravenous administration of a substance with affinity for cannabinoid receptors in mice produces analgesia, hypothermia, sedation and catalepsy. Individually, none of these effects can be considered as proof that a tested substance has affinity for cannabinoid-receptors, since all of these effects are common for various classes of centrally active agents. However, substances, which show all of these effects, i.e. substances that are active in this so-called tetrad model are considered to have affinity for the cannabinoid receptors. It has further been shown that cannabinoid receptor antagonists are higly effective in blocking the effects of a cannabinoid agonist in the mouse tetrad model.
(§2) The tetrad model is described, for example, in the publication of A. C. Howlett et al, International Union of Pharmacology XXVII. Classification of Cannabinoid Receptors, Pharmacol Rev 54, 161-202, 2002 and David R. Compton et al., “In-vivo Characterization of a Specific Cannabinoid Receptor Antagonist (SR141716A): Inhibition of Tetrahydrocannbinol-induced Responses and Apparent Agonist Activity”, J. Pharmacol. Exp. Ther. 277 , 2, 586-594, 1996. The corresponding parts of the description are hereby incorporated by reference.
(§3) Male NMRI mice with a weight of 20-30 g (Harlan, Barcelona, Spain) are used in all of the following experiments.
(§4) Before testing in the behavioral procedures given below, mice are acclimatized to the experimental setting. Pre-Treatment control values are determined for analgesia hot plate latency (in seconds), rectal temperature, sedation and catalepsy.
In order to determine the agonistic activty of the substance to be tested, the mice are injected intravenously with the substance to be tested or the vehicle alone. 15 minutes after injection, latency in hot plate analgesia is measured. Rectal temperature, sedation and catalepsy are measured 20 minutes after injection.
(§5) The hot plate analgesia is determined according to the method described in Woolfe D. et al. “The evaluation of analgesic action of pethidine hydrochloride (Demerol)”, J. Pharmacol. Exp. Ther. 80, 300-307, 1944.
(§6) The mice are placed on a hot plate (Harvard Analgesimeter) at 55±0.5° C. until they show a painful sensation by licking their paws or jumping and the time for these sensations to occur is recorded. This reading is considered the basal value (B). The maximum time limit the mice are allowed to remain on the hot plate in absence of any painful response is 40 seconds in order to prevent skin damage. This period is called the cut-off time (PC).
(§7) Fifteen minutes after the administration of the substance to be tested, the mice are again placed on the hot plate and the afore described procedure is repeated. This period is called the post-treatment reading (PT).
(§8) The degree of analgesia is calculated from the formula:
(§9) % MPE of Analgesia=(PT−B)/(PC−B)×100
(§10) Sedation and ataxia is determined according to the method described in Desmet L. K. C. et al. “Anticonvulsive properties of Cinarizine and Flunarizine in Rats and Mice”, Arzneim. -Forsch. (Frug Res) 25, 9, 1975.
(§11) The percentage of sedation is determined according to the formula:
(§12) % of sedation=arithmetic mean/3×100
(§13) Hypothermia is determined according to the method described in David R. Compton et. al. “In-vivo Characterization of a Specific Cannabinoid Receptor Antagonist (SR141716A) Inhibition of Tetrahydrocannbinol-induced Responses and Apparent Agonist Activity”, J. Pharmacol Exp Ther. 277, 2, 586-594, 1996.

cannabinoid receptors [2] = test: Mouse tetrad model, antagonistic effect against Win 55212-2; assay type: in vivo, mice; settings: 5 mg/kg i.v. prior to Win 55212-2 in a dose of 1.25 mg/kg i.v.; for Antagonistic effect A: Hot-Plate test / Antagonistic effect B: Hypothermia: unit assumed
Source text: as §1, §2, §3, §4
In order to determine the antagonistic activity the identical procedure is used as for the determination of the agonistic effects, but with the difference that the substance to be evaluated for its antagonistic activity is injectected 5 minutes before the intravenous injection of 1.25 mg/kg Win-55,212 a known cannabinoid-receptor agonist.
as §5, §6, §7, §8, §9, §10, §11, §12, §13

[3] = In-vivo testing for antiobesic activity; settings: rats
[4] = In-vivo testing for antidepressant activity, water despair test
Procedure: The in-vivo testing for antidepressant activity of the inventive pyrazoline compounds in the water despair test was carried out as described above.

CB2-Receptor = target: T1, CB2-Receptor (Homo sapiens, UniProt P34972); test: In-vitro determination of affinity to CB2-receptor, radioligand [3H]-CP55940; assay type: binding
T1 construct: purchased Receptor Biology, Inc
Procedure: Brockie et al., “Agonist-inverse agonist characterization at CB1 and CB2 cannabinoid receptors of L-759633, L759656 and AM630”, British Journal of Pharmacology, 126, 665-672, (1999), whereby the transfected human CB1 and CB2 receptors of Receptor Biology, Inc. are used. The radioligand used for both receptors is [^3H]-CP55940.
The affinity of the inventive substituted pyrazoline compounds to CB1/CB2 receptors was determined as described above.

T1 sequence (P34972 whole entry): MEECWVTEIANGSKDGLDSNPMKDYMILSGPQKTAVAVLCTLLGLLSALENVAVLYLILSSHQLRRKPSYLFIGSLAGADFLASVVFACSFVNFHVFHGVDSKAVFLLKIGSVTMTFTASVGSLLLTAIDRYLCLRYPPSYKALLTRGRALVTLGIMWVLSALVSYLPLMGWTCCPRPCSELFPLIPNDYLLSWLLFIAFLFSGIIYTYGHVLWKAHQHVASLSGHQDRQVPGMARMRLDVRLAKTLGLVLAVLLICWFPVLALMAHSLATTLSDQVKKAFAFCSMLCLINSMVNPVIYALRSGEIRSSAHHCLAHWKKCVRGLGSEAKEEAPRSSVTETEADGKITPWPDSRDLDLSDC

Row | SMILES | melting point | Agonistic effect A: Hot-Plate test (cannabinoid receptors [1]) | Agonistic effect C: Catalepsy (cannabinoid receptors [1]) | Agonistic effect D: Sedation (cannabinoid receptors [1]) | Agonistic effect B: Hypothermia (cannabinoid receptors [1]) | Antagonistic effect C: Catalepsy (cannabinoid receptors [2]) | Antagonistic effect D: Sedation (cannabinoid receptors [2]) | Antagonistic effect A: Hot-Plate test (cannabinoid receptors [2]) | Antagonistic effect B: Hypothermia (cannabinoid receptors [2]) | body weight ([3]; 10 mg/kg intraperitoneally daily over 14 days, FIG. 1) | food intake ([3]; 10 mg/kg intraperitoneally daily over 14 days, FIG. 2) | body weight effect after the treatment is ended ([3]; after end of 14 days of 10 mg/kg i.p. daily, FIG. 1) | immobility time [4] | struggling time [4] | Ki (CB2-Receptor)
1 | O=C(Nn1cnnc1)C1=NN(c2ccc(Cl)cc2Cl)C(c2ccc(Cl)cc2)C1 (stereo not shown) | 134 to 138 °C | – | – | – | – | – | – | – | – | – | – | – | – | – | –
2 | CN1CCN(NC(=O)C2=NN(c3ccc(Cl)cc3Cl)C(c3ccc(Cl)cc3)C2)CC1.Cl (stereo not shown) | 150 to 155 °C | – | – | – | – | – | – | – | – | – | – | – | – | – | –
3 | O=C(NN1CCCCC1)C1=NN(c2ccc(Cl)cc2Cl)C(c2ccc(Cl)cc2)C1 (stereo not shown) [Example 1, N-piperidinyl-5-(4-chlorophenyl)-1-(2,4-dichlorophenyl)-4,5-dihydro-1H-pyrazole-3-carboxamide] | – | 0% | 0% | 0 | 0% | 100% | 100% | 74% | 100% | lowered | reduction of food intake | also observed after the treatment is ended | positive effects | positive effects | –
4 | O=C(C1=NN(c2ccc(Cl)cc2Cl)C(c2ccc(Cl)cc2)C1)N1CCCCC1 (stereo not shown) [Example 5, [5-(4-Chloro-phenyl)-1-(2,4-dichloro-phenyl)-4,5-dihydro-1H-pyrazol-3-yl]-piperidin-1-yl-methanone] | 105 to 110 °C | 0% | 0% | 0 | 50% | 20% | 20% | 50% | 40% | – | – | – | – | – | ~1000 nM
